In the kinase profiling compilation of Christmann-Franck et al. (2016):

Tests used:
Test in all cases: KINOMEscan competition binding
Conditions in all cases: compound 10.0 µM
PIM3 (human) = PIM3 (human) (UniProt Q86V86)
TNNI3K (human) = TNNI3K (human) (UniProt Q59H18)
ACVRL1 (human) = ACVRL1 (human) (UniProt P37023)
TNK1 (human) = TNK1 (human) (UniProt Q13470)
PIP5K1A (human) = PIP5K1A (human) (UniProt Q99755)
MAP3K7 (human) = MAP3K7 (human) (UniProt O43318)
NUAK1 (human) = NUAK1 (human) (UniProt O60285)
PDPK1 (human) = PDPK1 (human) (UniProt O15530)
NEK5 (human) = NEK5 (human) (UniProt Q6P3R8)
FLT4 (human) = FLT4 (human) (UniProt P35916)
ERBB3 (human) = ERBB3 (human) (UniProt P21860)
TXK (human) = TXK (human) (UniProt P42681)
CAMK1G (human) = CAMK1G (human) (UniProt Q96NX5)
DMPK (human) = DMPK (human) (UniProt Q09013)
PRKACA (human) = PRKACA (human) (UniProt P17612)
CPK1 (P.falciparum) = test system: CPK1 (P.falciparum)
PIK3C2B (human) = PIK3C2B (human) (UniProt O00750)
STK24 (human) = STK24 (human) (UniProt Q9Y6E0)
STK38 (human) = STK38 (human) (UniProt Q15208)
[1] = test system: FLT3 (human), P36888 [D835H]
TLK1 (human) = TLK1 (human) (UniProt Q9UKI8)
MAP3K4 (human) = MAP3K4 (human) (UniProt Q9Y6R4)
PRKG1 (human) = PRKG1 (human) (UniProt Q13976)
[2] = test system: RET (human), P07949 [V804M]
PDGFRB (human) = PDGFRB (human) (UniProt P09619)
FGFR1 (human) = FGFR1 (human) (UniProt P11362)
PIK3CG (human) = PIK3CG (human) (UniProt P48736)
MARK2 (human) = MARK2 (human) (UniProt Q7KZI7)
CSNK1A1L (human) = CSNK1A1L (human) (UniProt Q8N752)
EPHA2 (human) = EPHA2 (human) (UniProt P29317)
CDK17 (human) = CDK17 (human) (UniProt Q00537)
RPS6KA4 KD2 (human) = RPS6KA4 KD2 (human) (UniProt O75676)
STK4 (human) = STK4 (human) (UniProt Q13043)
TYRO3 (human) = TYRO3 (human) (UniProt Q06418)
STK3 (human) = STK3 (human) (UniProt Q13188)
CDK7 (human) = CDK7 (human) (UniProt P50613)
PIP4K2C (human) = PIP4K2C (human) (UniProt Q8TBX8)
[3] = test system: KIT (human), P10721 [L576P]
NEK6 (human) = NEK6 (human) (UniProt Q9HC98)
TAOK1 (human) = TAOK1 (human) (UniProt Q7L7X3)

Sequence of KIT (human), P10721 [L576P] (P10721 whole entry L576P, looked up): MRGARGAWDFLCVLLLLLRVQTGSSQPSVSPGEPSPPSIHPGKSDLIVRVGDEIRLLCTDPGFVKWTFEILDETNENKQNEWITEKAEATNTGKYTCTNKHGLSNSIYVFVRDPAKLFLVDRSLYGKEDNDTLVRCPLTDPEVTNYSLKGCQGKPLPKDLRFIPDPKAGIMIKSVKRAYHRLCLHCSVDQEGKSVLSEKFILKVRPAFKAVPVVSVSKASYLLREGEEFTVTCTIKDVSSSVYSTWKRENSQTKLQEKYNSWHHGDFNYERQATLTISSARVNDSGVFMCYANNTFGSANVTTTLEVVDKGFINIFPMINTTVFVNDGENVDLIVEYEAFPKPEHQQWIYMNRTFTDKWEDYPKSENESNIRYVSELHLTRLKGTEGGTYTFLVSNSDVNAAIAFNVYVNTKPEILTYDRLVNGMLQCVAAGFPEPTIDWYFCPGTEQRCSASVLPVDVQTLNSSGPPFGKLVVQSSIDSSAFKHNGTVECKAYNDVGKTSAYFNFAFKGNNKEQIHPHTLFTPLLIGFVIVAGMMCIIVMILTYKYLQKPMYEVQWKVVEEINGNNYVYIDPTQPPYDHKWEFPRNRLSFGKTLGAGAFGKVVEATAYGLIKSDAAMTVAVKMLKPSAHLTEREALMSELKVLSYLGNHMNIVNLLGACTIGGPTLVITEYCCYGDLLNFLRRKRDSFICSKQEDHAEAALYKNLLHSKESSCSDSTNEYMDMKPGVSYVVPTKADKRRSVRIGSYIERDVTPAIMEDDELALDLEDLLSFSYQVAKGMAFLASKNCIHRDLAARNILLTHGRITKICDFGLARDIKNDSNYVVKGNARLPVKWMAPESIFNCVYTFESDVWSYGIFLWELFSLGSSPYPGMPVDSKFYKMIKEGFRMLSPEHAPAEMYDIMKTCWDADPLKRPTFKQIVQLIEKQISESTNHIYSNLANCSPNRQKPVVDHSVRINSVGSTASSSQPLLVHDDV
Sequence of CSNK1A1L (human) (Q8N752 whole entry, looked up): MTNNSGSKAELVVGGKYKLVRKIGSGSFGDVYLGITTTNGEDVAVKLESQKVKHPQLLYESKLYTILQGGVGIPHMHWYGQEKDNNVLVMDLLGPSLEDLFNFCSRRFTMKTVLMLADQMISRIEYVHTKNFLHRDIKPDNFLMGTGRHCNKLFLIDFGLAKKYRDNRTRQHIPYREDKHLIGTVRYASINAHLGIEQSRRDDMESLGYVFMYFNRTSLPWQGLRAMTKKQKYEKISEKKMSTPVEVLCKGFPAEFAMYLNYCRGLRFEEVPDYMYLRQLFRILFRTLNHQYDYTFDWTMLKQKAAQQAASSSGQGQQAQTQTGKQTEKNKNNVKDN
Sequence of STK4 (human) (Q13043 whole entry, looked up): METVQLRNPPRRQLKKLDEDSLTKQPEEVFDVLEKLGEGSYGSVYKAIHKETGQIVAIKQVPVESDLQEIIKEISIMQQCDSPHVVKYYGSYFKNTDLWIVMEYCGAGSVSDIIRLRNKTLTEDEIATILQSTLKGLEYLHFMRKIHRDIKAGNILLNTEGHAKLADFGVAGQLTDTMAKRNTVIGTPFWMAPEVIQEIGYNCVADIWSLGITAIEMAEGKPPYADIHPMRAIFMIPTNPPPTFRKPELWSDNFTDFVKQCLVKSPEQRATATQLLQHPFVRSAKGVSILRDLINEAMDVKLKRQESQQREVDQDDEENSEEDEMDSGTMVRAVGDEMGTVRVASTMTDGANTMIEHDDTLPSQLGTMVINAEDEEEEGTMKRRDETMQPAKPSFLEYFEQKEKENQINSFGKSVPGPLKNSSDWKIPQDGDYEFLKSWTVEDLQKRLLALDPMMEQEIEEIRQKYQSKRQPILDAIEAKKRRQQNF
Sequence of PRKG1 (human) (Q13976 whole entry, looked up): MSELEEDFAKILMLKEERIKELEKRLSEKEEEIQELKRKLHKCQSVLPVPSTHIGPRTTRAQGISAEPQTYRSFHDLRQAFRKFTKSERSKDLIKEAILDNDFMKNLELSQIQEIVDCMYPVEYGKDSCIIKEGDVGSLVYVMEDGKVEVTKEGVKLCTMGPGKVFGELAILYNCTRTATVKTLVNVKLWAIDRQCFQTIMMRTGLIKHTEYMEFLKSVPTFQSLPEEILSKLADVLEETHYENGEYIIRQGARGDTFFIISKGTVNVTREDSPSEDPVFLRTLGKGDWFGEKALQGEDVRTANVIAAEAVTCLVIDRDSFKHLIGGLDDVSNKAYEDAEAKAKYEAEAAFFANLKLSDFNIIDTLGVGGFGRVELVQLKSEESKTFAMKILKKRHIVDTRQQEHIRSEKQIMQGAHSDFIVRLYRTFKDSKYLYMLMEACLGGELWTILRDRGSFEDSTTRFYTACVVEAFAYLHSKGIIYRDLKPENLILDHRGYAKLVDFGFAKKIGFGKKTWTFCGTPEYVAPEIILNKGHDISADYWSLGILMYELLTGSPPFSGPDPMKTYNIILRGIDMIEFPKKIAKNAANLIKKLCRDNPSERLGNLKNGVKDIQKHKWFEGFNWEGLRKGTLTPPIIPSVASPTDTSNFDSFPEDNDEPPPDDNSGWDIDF
Sequence of PDGFRB (human) (P09619 whole entry, looked up): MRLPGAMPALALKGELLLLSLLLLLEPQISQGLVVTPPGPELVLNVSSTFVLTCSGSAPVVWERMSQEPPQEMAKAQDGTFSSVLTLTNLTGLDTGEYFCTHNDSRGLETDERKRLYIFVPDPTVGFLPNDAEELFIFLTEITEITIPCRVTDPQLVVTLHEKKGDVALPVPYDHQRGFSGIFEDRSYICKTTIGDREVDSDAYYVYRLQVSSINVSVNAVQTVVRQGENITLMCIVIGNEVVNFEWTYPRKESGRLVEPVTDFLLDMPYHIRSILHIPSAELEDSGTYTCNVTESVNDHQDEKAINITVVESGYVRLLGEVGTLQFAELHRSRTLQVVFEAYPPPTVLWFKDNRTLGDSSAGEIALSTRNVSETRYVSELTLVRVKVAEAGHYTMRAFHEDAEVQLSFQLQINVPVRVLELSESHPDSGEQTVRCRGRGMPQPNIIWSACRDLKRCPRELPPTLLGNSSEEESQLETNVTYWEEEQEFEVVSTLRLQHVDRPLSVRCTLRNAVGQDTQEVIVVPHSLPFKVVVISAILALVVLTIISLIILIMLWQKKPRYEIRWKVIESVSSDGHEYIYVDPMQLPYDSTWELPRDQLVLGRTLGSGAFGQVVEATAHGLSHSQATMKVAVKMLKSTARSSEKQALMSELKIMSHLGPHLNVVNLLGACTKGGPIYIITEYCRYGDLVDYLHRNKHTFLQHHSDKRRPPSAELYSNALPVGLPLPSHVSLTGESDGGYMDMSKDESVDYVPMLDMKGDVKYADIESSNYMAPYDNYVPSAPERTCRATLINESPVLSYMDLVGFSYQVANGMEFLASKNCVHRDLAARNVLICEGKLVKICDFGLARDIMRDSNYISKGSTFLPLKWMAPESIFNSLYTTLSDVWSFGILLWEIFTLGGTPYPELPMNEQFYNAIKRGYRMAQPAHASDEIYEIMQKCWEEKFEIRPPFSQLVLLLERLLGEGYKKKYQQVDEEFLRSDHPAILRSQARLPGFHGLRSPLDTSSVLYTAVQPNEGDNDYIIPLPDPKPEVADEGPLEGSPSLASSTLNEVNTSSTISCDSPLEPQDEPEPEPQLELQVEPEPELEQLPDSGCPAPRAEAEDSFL
Sequence of ERBB3 (human) (P21860 whole entry, looked up): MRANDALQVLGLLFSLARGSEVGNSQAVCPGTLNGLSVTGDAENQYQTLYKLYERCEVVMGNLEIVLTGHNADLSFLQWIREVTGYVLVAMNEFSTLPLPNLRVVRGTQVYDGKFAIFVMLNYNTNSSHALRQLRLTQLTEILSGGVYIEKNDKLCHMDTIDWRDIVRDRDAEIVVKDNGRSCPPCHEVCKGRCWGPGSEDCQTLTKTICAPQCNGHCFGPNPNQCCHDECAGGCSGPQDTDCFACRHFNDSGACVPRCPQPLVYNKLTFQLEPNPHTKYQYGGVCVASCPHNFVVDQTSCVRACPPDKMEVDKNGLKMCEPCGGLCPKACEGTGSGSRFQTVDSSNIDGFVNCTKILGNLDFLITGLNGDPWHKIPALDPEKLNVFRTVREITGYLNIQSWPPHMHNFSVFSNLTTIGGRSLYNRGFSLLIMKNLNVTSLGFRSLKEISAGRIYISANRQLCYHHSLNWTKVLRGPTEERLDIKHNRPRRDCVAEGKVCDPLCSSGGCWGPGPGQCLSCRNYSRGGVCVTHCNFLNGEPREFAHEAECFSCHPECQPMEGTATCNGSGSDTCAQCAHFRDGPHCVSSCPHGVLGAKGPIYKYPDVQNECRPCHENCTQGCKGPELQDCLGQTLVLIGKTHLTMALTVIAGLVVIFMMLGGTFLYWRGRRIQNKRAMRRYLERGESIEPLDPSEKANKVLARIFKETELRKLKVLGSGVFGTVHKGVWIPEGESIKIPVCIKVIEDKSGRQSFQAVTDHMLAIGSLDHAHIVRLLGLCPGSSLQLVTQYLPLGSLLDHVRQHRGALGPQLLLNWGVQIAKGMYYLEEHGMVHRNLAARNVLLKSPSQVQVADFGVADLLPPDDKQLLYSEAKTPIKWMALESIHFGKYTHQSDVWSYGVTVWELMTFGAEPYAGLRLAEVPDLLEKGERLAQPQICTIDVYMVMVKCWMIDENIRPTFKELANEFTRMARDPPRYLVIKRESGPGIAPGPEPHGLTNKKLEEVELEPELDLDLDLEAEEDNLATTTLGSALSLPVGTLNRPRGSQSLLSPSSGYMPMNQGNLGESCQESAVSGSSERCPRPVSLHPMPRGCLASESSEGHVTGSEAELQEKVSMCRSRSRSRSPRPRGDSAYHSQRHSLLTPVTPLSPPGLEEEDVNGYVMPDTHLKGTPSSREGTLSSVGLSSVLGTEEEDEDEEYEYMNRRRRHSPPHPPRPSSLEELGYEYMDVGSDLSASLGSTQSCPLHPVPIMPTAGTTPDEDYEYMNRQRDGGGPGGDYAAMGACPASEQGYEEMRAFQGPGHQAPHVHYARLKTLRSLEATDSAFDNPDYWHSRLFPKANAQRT

| Compound | kinase still bound, per cent of control (PIM3 (human)) [%] | kinase still bound, per cent of control (TNNI3K (human)) [%] | kinase still bound, per cent of control (ACVRL1 (human)) [%] | kinase still bound, per cent of control (TNK1 (human)) [%] | kinase still bound, per cent of control (PIP5K1A (human)) [%] | kinase still bound, per cent of control (MAP3K7 (human)) [%] | kinase still bound, per cent of control (NUAK1 (human)) [%] | kinase still bound, per cent of control (PDPK1 (human)) [%] | kinase still bound, per cent of control (NEK5 (human)) [%] | kinase still bound, per cent of control (FLT4 (human)) [%] | kinase still bound, per cent of control (ERBB3 (human)) [%] | kinase still bound, per cent of control (TXK (human)) [%] | kinase still bound, per cent of control (CAMK1G (human)) [%] | kinase still bound, per cent of control (DMPK (human)) [%] | kinase still bound, per cent of control (PRKACA (human)) [%] | kinase still bound, per cent of control (CPK1 (P.falciparum)) [%] | kinase still bound, per cent of control (PIK3C2B (human)) [%] | kinase still bound, per cent of control (STK24 (human)) [%] | kinase still bound, per cent of control (STK38 (human)) [%] | kinase still bound, per cent of control (TLK1 (human)) [%] | other results |
| --- | --- | --- | --- | --- | --- | --- | --- | --- | --- | --- | --- | --- | --- | --- | --- | --- | --- | --- | --- | --- | --- |
| O=c1cc(N2CCOCC2)oc2c(-c3cccc4c3sc3ccccc34)cccc12 | 65 | 86 | 94 | 100 | 100 | 100 | 100 | 95 | 100 | 92 | 72 | 91 | 85 | 89 | 87 | 98 | 20 | 86 | 100 | 71 | kinase still bound, per cent of control [1]: 92%; kinase still bound, per cent of control (MAP3K4 (human)): 100%; kinase still bound, per cent of control (PRKG1 (human)): 100%; kinase still bound, per cent of control [2]: 95%; kinase still bound, per cent of control (PDGFRB (human)): 76%; kinase still bound, per cent of control (FGFR1 (human)): 93%; kinase still bound, per cent of control (PIK3CG (human)): 1.3%; kinase still bound, per cent of control (MARK2 (human)): 90%; kinase still bound, per cent of control (CSNK1A1L (human)): 92%; kinase still bound, per cent of control (EPHA2 (human)): 72%; kinase still bound, per cent of control (CDK17 (human)): 100%; kinase still bound, per cent of control (RPS6KA4 KD2 (human)): 100%; kinase still bound, per cent of control (STK4 (human)): 98%; kinase still bound, per cent of control (TYRO3 (human)): 100%; kinase still bound, per cent of control (STK3 (human)): 85%; kinase still bound, per cent of control (CDK7 (human)): 100%; kinase still bound, per cent of control (PIP4K2C (human)): 89%; kinase still bound, per cent of control [3]: 66%; kinase still bound, per cent of control (NEK6 (human)): 100%; kinase still bound, per cent of control (TAOK1 (human)): 100% |
| O=C1NC(=O)/C(=C/c2ccc3nccc(-c4ccncc4)c3c2)S1 | 2.4 | 79 | 85 | 52 | 48 | 62 | 100 | 62 | 100 | 98 | 88 | 79 | 32 | 2.9 | 35 | 11 | 0.15 | 87 | 61 | 81 | kinase still bound, per cent of control [1]: 31%; kinase still bound, per cent of control (MAP3K4 (human)): 96%; kinase still bound, per cent of control (PRKG1 (human)): 75%; kinase still bound, per cent of control [2]: 96%; kinase still bound, per cent of control (PDGFRB (human)): 55%; kinase still bound, per cent of control (FGFR1 (human)): 81%; kinase still bound, per cent of control (PIK3CG (human)): 0%; kinase still bound, per cent of control (MARK2 (human)): 74%; kinase still bound, per cent of control (CSNK1A1L (human)): 55%; kinase still bound, per cent of control (EPHA2 (human)): 95%; kinase still bound, per cent of control (CDK17 (human)): 59%; kinase still bound, per cent of control (RPS6KA4 KD2 (human)): 63%; kinase still bound, per cent of control (STK4 (human)): 81%; kinase still bound, per cent of control (TYRO3 (human)): 100%; kinase still bound, per cent of control (STK3 (human)): 54%; kinase still bound, per cent of control (CDK7 (human)): 1.7%; kinase still bound, per cent of control (PIP4K2C (human)): 3.2%; kinase still bound, per cent of control [3]: 34%; kinase still bound, per cent of control (NEK6 (human)): 81%; kinase still bound, per cent of control (TAOK1 (human)): 3% |
| COc1cc2ncnc(-n3nc(-c4ccccn4)nc3N)c2cc1OC | 7.6 | 80 | 15 | 11 | 6.4 | 15 | 100 | 90 | 26 | 14 | 9 | 43 | 34 | 100 | 100 | 1.4 | 0.35 | 56 | 51 | 46 | kinase still bound, per cent of control [1]: 3.2%; kinase still bound, per cent of control (MAP3K4 (human)): 100%; kinase still bound, per cent of control (PRKG1 (human)): 100%; kinase still bound, per cent of control [2]: 66%; kinase still bound, per cent of control (PDGFRB (human)): 3.4%; kinase still bound, per cent of control (FGFR1 (human)): 65%; kinase still bound, per cent of control (PIK3CG (human)): 3.1%; kinase still bound, per cent of control (MARK2 (human)): 53%; kinase still bound, per cent of control (CSNK1A1L (human)): 32%; kinase still bound, per cent of control (EPHA2 (human)): 27%; kinase still bound, per cent of control (CDK17 (human)): 59%; kinase still bound, per cent of control (RPS6KA4 KD2 (human)): 0.6%; kinase still bound, per cent of control (STK4 (human)): 61%; kinase still bound, per cent of control (TYRO3 (human)): 63%; kinase still bound, per cent of control (STK3 (human)): 54%; kinase still bound, per cent of control (CDK7 (human)): 5.4%; kinase still bound, per cent of control (PIP4K2C (human)): 1.1%; kinase still bound, per cent of control [3]: 4.5%; kinase still bound, per cent of control (NEK6 (human)): 0.15%; kinase still bound, per cent of control (TAOK1 (human)): 3.2% |
| N#CCNC(=O)c1ccc(-c2ccnc(Nc3ccc(N4CCOCC4)cc3)n2)cc1 | 100 | 100 | 47 | 33 | 39 | 49 | 45 | 100 | 2.4 | 48 | 100 | 100 | 30 | 37 | 96 | 100 | 56 | 64 | 59 | 59 | kinase still bound, per cent of control (MAP3K4 (human)): 92%; kinase still bound, per cent of control (PRKG1 (human)): 100%; kinase still bound, per cent of control (PDGFRB (human)): 2.2%; kinase still bound, per cent of control (FGFR1 (human)): 86%; kinase still bound, per cent of control (PIK3CG (human)): 2.4%; kinase still bound, per cent of control (MARK2 (human)): 43%; kinase still bound, per cent of control (CSNK1A1L (human)): 100%; kinase still bound, per cent of control (EPHA2 (human)): 100%; kinase still bound, per cent of control (CDK17 (human)): 55%; kinase still bound, per cent of control (RPS6KA4 KD2 (human)): 100%; kinase still bound, per cent of control (STK4 (human)): 100%; kinase still bound, per cent of control (TYRO3 (human)): 100%; kinase still bound, per cent of control (STK3 (human)): 52%; kinase still bound, per cent of control (CDK7 (human)): 3.8%; kinase still bound, per cent of control (PIP4K2C (human)): 54%; kinase still bound, per cent of control (NEK6 (human)): 6.2%; kinase still bound, per cent of control (TAOK1 (human)): 32% |
